This is an account of results in US8552035B2, “Phenanthrenone compounds, compositions and methods” (Pfizer Inc., priority 2008, dated 2013).

In one data set the test system is TNFα. The data set can be described thus: LPS-induced human whole blood, TNFα release. The data set is classed as cell-based. As to the method:
Venous blood from human donors was collected as 10 ml aliquots in tubes containing sodium heparin (BD Vacutainer from Becton Dickinson and Company, Franklin Lakes, N.Y.). Blood was added to sterile polystyrene round bottom 96-well tissue culture plates (Corning Costar) at 180 Blood was placed in a humidified 37 C incubator with 5% CO2 while compounds were prepared (nearly 60 minutes).
Compounds were prepared from 10 mM stock solutions in dimethylsulfoxide (DMSO, Sigma-Aldrich). Stock compound was diluted in DMSO to give appropriate starting concentration then diluted serially 1/3 in DMSO (i.e. 15 μl compound+30 μl DMSO), followed by diluting each serial dilution 1/167 into vehicle solution (2% DMSO in phosphate buffered saline (Dulbecco's Phosphate Buffered Saline without calcium chloride without magnesium chloride, Invitrogen Corporation, Carlsbad Calif.)). Compound or vehicle was added to blood in 10 μl aliquots as triplicates, omitting the outside wells to minimize possible edge effects. The final highest concentration of each compound in the assay ranged from 3 to 0.3 μM. Final DMSO concentration in the assay was 0.1%. The plate containing the samples was gently vortexed to mix and replaced in the incubator. LPS stock (E. coli serotype 0111:B4, Sigma-Aldrich), stored in aliquots of 100 μg/ml in RPMI at −20° C., was diluted […] in RPMI to make a working stock solution. After 60 minutes of incubation, 10 μl of the prepared LPS working stock was added to the blood to a final concentration of 100 ng/ml. Wells to be used as negative control received RPMI media with no LPS. The plate was again gently vortexed and the plates incubated overnight for 22 hours. Following incubation, the blood was centrifuged at 1500×g for 5 minutes and the plasma removed to either freeze at −20° C. or assay for cytokine release.
IL-1β, IFNγ and TNFα protein levels were measured using Meso Scale assay kits (Meso Scale Discovery, Gaithersburg, Md., U.S.A.). Reagents were allowed to come to room temperature. Meso Scale plates were blocked with 150 μl of Meso Scale Block B diluent, gently shaking at room temperature for 60 minutes. Plates were washed 3× with wash buffer (PBS, Invitrogen Corporation, with 0.05% Tween-20, Sigma-Aldrich). Calibrators for standard curves were prepared in human plasma/serum assay diluent as a 1/5 serial dilution to achieve final concentrations ranging from 50000 pg/ml to 3.2 pg/ml. Samples were added at 10 to 20 μl/well and calibrators were added at 20 μl/well then incubated at room temperature with gentle shaking for 2 hours. Plates were again washed 3× with wash buffer. Detection antibody was diluted in human plasma/serum antibody diluent to 1 μg/ml and added to the plate at 20 μl/well. Plates were incubated as before for 2 hours and washed again. Read Buffer T (4×) was diluted 1:1 with mqH20 to 2× concentration and 150 μl added to each well. Plates were read on the SECTOR Imager 6000 (Meso Scale Discovery) to generate raw signal values.
Individual sample signal values were compared to positive and negative controls (vehicle treated blood with LPS and vehicle treated blood without LPS, respectively) to generate % inhibition. Triplicate values were averaged for each donor. The values for three or four donors were averaged and graphed using 4-parameter fit curves in the LabStats plug-in for the Microsoft Excel application.

The next data set has as its system LPS-induced TNFα. The data set can be described thus: 28-day mouse side-effect model, LPS-induced serum TNFα suppression. The data set is classed as in vivo. The conditions noted are these: oral gavage 28 days, LPS challenge.
In another data set the test system is serum insulin. The data set can be described thus: 28-day mouse side-effect model, serum insulin. The data set is classed as in vivo. The conditions noted are these: oral gavage 28 days.

Take `Cc1ncccc1NC(=O)c1ccc2c(c1)C(=O)C[C@@H]1C[C@@](O)(c3ccccc3)[C@](C)(O)C[C@@]21Cc1ccccc1` [Example 1, (4bR,6R,7R,8aS)-4b-benzyl-6,7-dihydroxy-6-methyl-N-(2-methylpyridin-3-yl)-10-oxo-7-phenyl-4b,5,6,7,8,8a,9,10-octahydrophenanthrene-2-carboxamide]: the inhibition at 0.000137174 µM with TNFα (Homo sapiens, 0.137174 nM, mean of donors) was determined as 0.604%. Besides, the inhibition at 0.000411523 µM in the data set on TNFα (Homo sapiens, 0.411523 nM, mean of donors) was -3.62%. Moreover, the inhibition at 0.00123457 µM in the data set on TNFα (Homo sapiens, 1.234568 nM, mean of donors) turned out to be 0.811%. For the same compound, in the data set on TNFα (Homo sapiens, 3.703704 nM, mean of donors), the inhibition at 0.0037037 µM is 7.09%. Besides, the inhibition at 0.0111111 µM in the data set with TNFα (Homo sapiens, 11.11111 nM, mean of donors) came to 18.1%. For the same compound, the inhibition at 0.0333333 µM in the data set on TNFα (Homo sapiens, 33.33333 nM, mean of donors) was 30.7%. Also, the inhibition at 0.1 µM in the data set with TNFα (Homo sapiens, 100 nM, mean of donors) is 42.2%. In the data set on TNFα (Homo sapiens, 300 nM, mean of donors), the inhibition at 0.3 µM worked out at 42.8%. Also, the “level of inhibition of TNF” value in the data set on TNFα (ex vivo LPS-stimulated human whole blood, extent of inhibition, concentration not given) worked out at 43%. In addition, the median effective dose (ED50) with LPS-induced TNFα (672 h, read-out: TNFα Suppression (ED50 dose)) turned out to be 0.029 mg/kg. The “TNFα Suppression (ED80 dose)” value in the data set on LPS-induced TNFα was 0.11. In addition, the ED50 at 28 days in the data set with serum insulin (female, Swiss Webster, read-out: Insulin (ED50 dose)) came out at 1.28 mg/kg. Moreover, in the data set with serum insulin, the “Insulin (ED80 dose)” value worked out at 5.89.

What is called inhibition is the relative decrease from the control value, in per cent. The ED50 is the dose at which the effect has come halfway, by size or by number of responders.
